In paper PMC4936272 (Bioorganic & medicinal chemistry letters, 2016):
pIC50: −log10 of the molar value.

Columns and labels:
[1] = tested on: Male ICR mice; experiment: Mouse tail flick test; type: in vivo; details: for Analgesia in tail flick test: 50 mg/kg intraperitoneal (IP); for Analgesia in tail flick test, dose-response: lower doses than 50 mg/kg IP
[2] = tested on: FAAH; details: cited from earlier work
[3] = biological target: T1, human FAAH (Homo sapiens, UniProt O00519); experiment: Reversibility of FAAH inactivation by exhaustive dialysis; details: 144 hrs dialysis at 4°C after complete inactivation
T1 sequence (O00519 34-579): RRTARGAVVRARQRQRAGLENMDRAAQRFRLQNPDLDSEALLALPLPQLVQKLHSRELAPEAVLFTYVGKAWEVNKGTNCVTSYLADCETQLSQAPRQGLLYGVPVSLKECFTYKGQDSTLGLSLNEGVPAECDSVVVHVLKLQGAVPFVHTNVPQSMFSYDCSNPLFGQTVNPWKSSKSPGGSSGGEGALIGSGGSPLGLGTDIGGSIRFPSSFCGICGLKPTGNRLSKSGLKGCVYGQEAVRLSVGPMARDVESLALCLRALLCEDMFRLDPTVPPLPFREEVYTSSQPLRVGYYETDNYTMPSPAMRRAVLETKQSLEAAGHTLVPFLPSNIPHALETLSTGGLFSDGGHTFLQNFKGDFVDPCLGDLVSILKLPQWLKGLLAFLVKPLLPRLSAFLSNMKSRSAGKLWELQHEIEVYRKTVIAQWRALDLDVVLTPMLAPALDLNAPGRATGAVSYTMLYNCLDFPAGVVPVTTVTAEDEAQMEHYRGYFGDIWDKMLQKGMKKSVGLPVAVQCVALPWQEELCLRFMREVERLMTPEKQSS

Row | SMILES | Analgesia in tail flick test [1] | Analgesia in tail flick test, dose-response [1] | also measured
1 | O=C(Nc1cnccn1)N1CCC(c2nc(C3=NOC(c4ccccc4)C3)cs2)CC1 (stereo not shown) [Compound 2e] | significant analgesic effects | failed to produce significant analgesia | –
3 | O=C(Nc1cccnn1)N1CCC(c2nc(C3=NOC(c4ccccc4)C3)cs2)CC1 (stereo not shown) [Compound 2f] | significant analgesic effects | failed to produce significant analgesia | –
4 | O=C(Nc1cccnc1)N1CCC(Cc2cccc(Oc3ccc(C(F)(F)F)cn3)c2)CC1 [PF-3845] | – | – | kinact reported for other chemotypes [2]: 0.0033 s⁻¹
5 | O=C(Oc1cccnc1)N1CCC(c2nc(C3=NOC(c4ccccc4)C3)cs2)CC1 (stereo not shown) [Compound 1o] | did not produce analgesia | – | –
6 | COc1ccc(OC(=O)N2CCC(c3nc(C4=NOC(c5ccccc5)C4)cs3)CC2)cc1 (stereo not shown) [Compound 1p] | did not produce analgesia | – | –
7 | N#Cc1ccc(OC(=O)N2CCC(c3nc(C4=NOC(c5ccccc5)C4)cs3)CC2)cc1 (stereo not shown) [Compound 1b] | significant analgesic effects | clear dose-dependent effects down to 5 mg/kg | –
8 | O=C(Nc1ccccc1)N1CCN(c2nc(-c3ccccc3)ns2)CC1 [JNJ-1661010] | – | – | Recovery of FAAH activity after dialysis [3]: ~30%
9 | O=C(Oc1ccccc1)N1CCC(c2nc(C3=NOC(c4ccccc4)C3)cs2)CC1 (stereo not shown) [Compound 1a, phenyl 4-[4-(4,5-dihydro-5-phenyl-3-isoxazolyl)-2-thiazolyl]-1-piperidinecarboxylate] | significant analgesic effects | failed to produce significant analgesia | –
